# Experiment: method code SF, from Recanatgini, M.; Leoni, A.; Baraldi, G. (1991). Partition coefficients of 3-methyl-4-nitropyrazole-5-carboxamides. 16, 127-130.
# Conditions: not given
row,logP,Compound
1,2.34,Cc1ccc(NC(=O)c2[nH]nc(C)c2[N+](=O)[O-])cc1

# Same assay, conditions: pH 1.0
row,logD,Compound
1,1.68,Cc1n[nH]c(C(=O)N(C)C2CCCCC2)c1[N+](=O)[O-]
2,1.71,Cc1n[nH]c(C(=O)NC2CCCCC2)c1[N+](=O)[O-]
3,0.25,Cc1[nH]nc(C(=O)NC2CC2)c1[N+](=O)[O-]
4,-0.23,CNC(=O)c1n[nH]c(C)c1[N+](=O)[O-]
5,2.83,Cc1n[nH]c(C(=O)NC23CC4CC(CC(C4)C2)C3)c1[N+](=O)[O-]
6,0.79,Cc1[nH]nc(C(=O)N2CCCCC2)c1[N+](=O)[O-]
7,1.15,Cc1n[nH]c(C(=O)N2CCCCCC2)c1[N+](=O)[O-]
8,1.49,Cc1n[nH]c(C(=O)NCc2ccccc2)c1[N+](=O)[O-]
9,1.81,Cc1n[nH]c(C(=O)Nc2ccccc2)c1[N+](=O)[O-]
10,-0.38,Cc1n[nH]c(C(N)=O)c1[N+](=O)[O-]
11,3.48,CCCCCCCCNC(=O)c1[nH]nc(C)c1[N+](=O)[O-]
12,4.48,CCCCCCCCCCNC(=O)c1[nH]nc(C)c1[N+](=O)[O-]
13,0.25,Cc1n[nH]c(C(=O)N2CCCC2)c1[N+](=O)[O-]
14,2.46,CCCCCCNC(=O)c1[nH]nc(C)c1[N+](=O)[O-]
15,1.65,Cc1n[nH]c(C(=O)N(C)Cc2ccccc2)c1[N+](=O)[O-]
16,1.82,Cc1n[nH]c(C(=O)NCCc2ccccc2)c1[N+](=O)[O-]
17,1.24,Cc1n[nH]c(C(=O)NC2CCCC2)c1[N+](=O)[O-]
18,1.27,CCCCNC(=O)c1[nH]nc(C)c1[N+](=O)[O-]
19,0.13,CCNC(=O)c1n[nH]c(C)c1[N+](=O)[O-]
20,0.65,CCCNC(=O)c1[nH]nc(C)c1[N+](=O)[O-]
